{"source": "patent US12508243B2", "about": "“Compositions and methods for treating cancer and improving epithelial homeostasis” (The Regents of the University of California, priority 2019, dated 2025)", "key": {"[1]": {"tested_on": "human ABSCs", "assay": "Air-liquid interface (ALI) differentiation assay with human ABSCs", "assay_type": "cell-based", "experimental": "(§1) 24-well 6.5 mm transwells with 0.4 μm pore polyester membrane inserts were coated with 0.2 mg/mL collagen type I dissolved in 60% ethanol and allowed to air dry. ABSCs were seeded at 100,000 cells per well and allowed to grow in the submerged phase of culture for 4-5 days with 500 μl media in the basal chamber and 200 μl media in the apical chamber. ALI cultures were then established and culture with only 500 μl media in the basal chamber, and cultures harvested at varying timepoints for immunofluorescence studies. Media was changed every other day and cultures were maintained at 37° C. and 5% C02. ABSCs were treated with the indicated concentrations of GSK3XV (Sigma 361558), CHIR or WIC1.\n(§2) Mouse and human ABSCs were fixed in […] for 15 minutes followed by permeabilization with 0.50% Triton-X for 10 minutes. Cells were blocked using serum-free protein block (Dako X090930) for one hour at room temperature and overnight primary antibody incubation. Secondary antibodies were incubated for 1 hour in darkness, washed, and mounted using Vectashield hardest mounting medium with DAPI (Vector Labs H-1500). IF images were obtained using an LSM780 or LSM880 Zeiss confocal microscope and composite images generated using Fiji.\n(§3) To assess whether WIC1 could reverse Wnt/β-catenin-induced ABSC hyperproliferation, human ABSCs were treated with either DMSO, CHIR, or CHIR+WIC1. […] It was then sought to determine if WIC1 could promote ABSC differentiation to ciliated cells under ALI conditions."}, "[2]": {"tested_on": "Trp63", "assay": "Trp63 expression with CHIR and WIC1 treatment (FIG. 4F)", "assay_type": "cell-based", "conditions": "WIC1 treatment of CHIR-induced expression", "experimental": "(§4) RNA was isolated with the RNeasy Mini Kit (Qiagen 74104) following manufacturer's protocol and quantified using a NanoDrop Spectrophotometer (ThermoFisher). cDNA synthesis was performed using the TaqMan Reverse Transcription Reagents (ThermoFisher) as indicated by the company. qPCR was then performed using the TaqMan PCR Master Mix (Applied Biosystems) on the StepOne-Plus Real Time PCR System."}, "[3]": {"tested_on": "BEAS2B cells", "assay": "Cell Titer Glo toxicity assay in BEAS2B cells", "assay_type": "cell-based, human", "experimental": "(§5) For luciferase reporter assays conducted outside of the high-throughput drug screen, BEAS2B cells were seeded in a 96-well plate at 20,000 cells per well. The following day, cells were with treated DMSO, 5 μM CHIR99021 (CHIR; Tocris 4423), or 5 μM CHIR plus WIC2 (Key Organics GP-0355), Coumarin (Sigma C4261), or WIC1 for 24 hours. Lysis reactions were conducted using BrightGlo (Promega E1910) and incubated for two minutes at room temperature prior to transferring luminescence reactions to white-bottom, white-walled 96-well plates (Costar). Toxicity assays were conducted by adding Cell Titer Glo reagent (Promega) following manufacturer's protocol. Luminescence readings were conducted using the Clariostar plate reader."}, "[4]": {"tested_on": "human ABSCs", "assay": "Proliferation of human ABSCs treated with DMSO, CHIR or CHIR+WIC1", "assay_type": "cell-based", "conditions": "CHIR+WIC1 vs CHIR", "experimental": "(§6) Mouse and human ABSCs were isolated following a previously published method. Briefly, mouse tracheas were dissected, cleaned, and incubated in 16 U/mL dispase for 30 minutes (1 hour for human) at room temperature. Tracheas were then incubated in 0.5 mg/mL DNase for another 30 minutes (1 hour for human) at room temperature. Epithelium was stripped and incubated in 0.1% Trypsin-EDTA for 30 minutes (1 hour for human) shaking at 37° C. to generate a single cell suspension. Isolated cells were passed through a 40 μm strainer and stained with fluorophore-conjugated antibodies against ITGA6 and TROP2. ITGA6+ TROP2+ cells were obtained via FACS that was completed using the BD FACSAria cell sorter.\n(§7) In vitro proliferation was studied using the Click-iT EdU incorporation assay kit (Invitrogen C10337) following the company's protocol. Briefly, mouse and human AB SC cultures were treated with 10 μM EdU 6-8 hours prior to commencing IFs. Cells were fixed with […] for 15 minutes followed by permeabilization in 0.5% Triton-X for 20 minutes. EdU cocktail was incubated for 30 minutes in darkness followed by immunocytochemistry.\nas §3"}, "[5]": {"tested_on": "BEAS2B cells", "assay": "Hoechst stain toxicity assay (nuclei count) in BEAS2B cells", "assay_type": "cell-based, human", "conditions": "CHIR+10 uM compound, 24 hours"}, "[6]": {"tested_on": "p-β-catenin^Y489", "assay": "Immunofluorescence staining of phosphorylated β-catenin localization in ABSCs", "assay_type": "cell-based, mouse", "conditions": "WIC1 added to CHIR-treated cultures", "experimental": "as §2\n(§8) To determine whether the pathobiology observed in human patients can be modeled in vitro, mouse ABSCs (mABSCs) were treated with GSK3β inhibitor CHIR99021 (CHIR) under submerged culture conditions for 4 days to activate canonical Wnt signaling (FIG. 2A)."}, "[7]": {"tested_on": "mouse ABSCs (mABSCs)", "assay": "Air-liquid interface (ALI) differentiation assay with mouse ABSCs", "assay_type": "cell-based", "conditions": "mABSCs, ALI", "experimental": "as §1\nMouse ABSCs were grown in MTEC Plus media and MTEC serum-free media during the submerged and ALI phases of culture, respectively. MTEC base media is DMEM/Ham's F12 50/50 (Corning 15090CV). Table S1 and Table S2 indicate the media components and concentrations for MTEC Plus and MTEC serum-free media, respectively.\nas §2, with “Fiji. […]” for “Fiji.”"}, "[8]": {"tested_on": "mouse ABSCs (mABSCs)", "assay": "EdU proliferation assay in mouse ABSCs, submerged culture", "assay_type": "cell-based", "conditions": "1 μM CHIR + 1 μM inhibitor, submerged culture 4 days", "experimental": "as §6, §7, §8"}, "[9]": {"tested_on": "TP63", "assay": "qRT-PCR of TP63 expression in BEAS2B cells", "assay_type": "cell-based, human", "conditions": "CHIR plus WIC1", "experimental": "as §4"}, "[10]": {"tested_on": "TCF/LEF luciferase reporter", "assay": "TCF/LEF luciferase reporter assay in transduced BEAS2B cells (CHIR-induced)", "assay_type": "cell-based, human", "experimental": "BEAS2B cells (ATCC CRL-9609) were seeded in a 6-well plate and infected with Cignal lentiviral particles containing a TCF/LEF luciferase reporter (Qiagen CLS-018L). Cells were spin infected at 37° C. for one hour using a multiplicity of infection of 20. Cells were selected with 0.6 μg/mL puromycin to isolate stably expressing clones.\nas §5\nIn light of the finding that Wnt/β-catenin signaling drives ABSC hyperproliferation, a small molecule inhibitors of the pathway that could restore airway homeostasis. A high-throughput drug screen was established to identify compounds capable of reducing TCF/LEF activity measured by a luciferase reporter induced by CHIR treatment in a 384-well format (FIG. 3A). Briefly, white-bottom 384-well plates (Greiner One) were precoated overnight with 0.01 mg/mL fibronectin from human plasma (Sigma F0895), 0.03 mg/mL rat tail collagen type I (Corning 354249), and 0.01 mg/mL BSA (ThermoFisher BP-9706) diluted in 50 uL of Airway Epithelial Cell Growth Medium (PromoCell C21060). Precoat was then aspirated and washed using 100 μL the BioTek EL406. A custom V&P pin tool mounted to a Beckman FX liquid handler was then used to pin […] of 10 mM stock compound. 2,000 BEAS2B cells per well were then seeded using the Multidrop. Cells were therefore treated with 1% DMSO, 5 μM CHIR, or 5 μM CHIR+10 μM pinned compound and incubated for 24 hours at 37° C. and 5% CO2. […] 25 μL BrightGlo (Promega) was subsequently added to each well using the BioTek EL405 and incubated for 2 minutes prior reading luminescence values with the Envision plate reader (FIG. 3B). […] Z′ factor values were used to assess assay quality and was calculated by: Z′=1-3(SD Total+SDBackground)/(MeanTotal−MeanBackground) where SDTotal and MeanTotal are the standard deviation and mean of signal for CHIR-treated wells, and SDBackground and MeanBackground are the standard deviation and mean of signal for DMSO-treated wells. The Z′ factor value was calculated to be 0.82."}, "[11]": {"tested_on": "Wnt signaling target genes CCND1, MYC, CTNNB1", "assay": "qRT-PCR of downstream Wnt signaling target genes in ABSCs", "assay_type": "cell-based, human", "conditions": "ABSCs under ALI conditions", "experimental": "as §4, §3"}}, "note": "Entries after “also recorded” stand apart in the source; their conditions may differ.", "data": [{"smiles": "CCN1CCN(c2ccc(NC(=O)c3cc4ccccc4oc3=O)cc2)CC1", "note": "[WIC1]", "values": [{"measurement": "Ciliated cell differentiation", "setting": "[1]; ABSCs, ALI, 100 nM vs DMSO", "result": "significantly induced ciliated cell differentiation; also recorded: increased differentiation to ciliated cells"}, {"measurement": "Ciliated cell differentiation", "setting": "[1]; in vitro, concentration not given", "result": "promoted ciliated cell differentiation"}, {"measurement": "Trp63 expression", "setting": "[2]", "result": "substantially reversed"}, {"measurement": "Toxicity by Cell Titer Glo", "setting": "[3]; 10 μM", "result": "non-toxic"}, {"measurement": "Toxicity by Cell Titer Glo", "setting": "[3]; various concentrations", "result": "minimal toxicity at each concentration"}, {"measurement": "Human ABSC proliferation", "setting": "[4]", "result": "significant reduction in ABSC proliferation; also recorded: reduced Wnt/β-catenin-driven human ABSC hyperproliferation"}, {"measurement": "Toxicity by Hoechst stain", "setting": "[5]", "result": "no toxicity; also recorded: minimal toxicity"}, {"measurement": "Nuclear localization of p-β-catenin^Y489", "setting": "[6]", "result": "decreased the nuclear localization"}, {"measurement": "Proportion of ciliated cells", "setting": "[7]; 100 nM inhibitor vs DMSO", "result": "induced a greater proportion of ciliated cells"}, {"measurement": "Percentage of ciliated cells", "setting": "[7]; 1 μM inhibitor vs DMSO", "result": "no effect on the percentage of ciliated cells"}, {"measurement": "mABSC proliferation (EdU incorporation)", "setting": "[8]", "result": "decreased mABSC proliferation to a similar degree"}, {"measurement": "TP63 expression", "setting": "[9]", "result": "reduced"}, {"measurement": "TCF/LEF activity, inhibitor comparison", "setting": "[10]; 100 nM and 1 μM, WIC1, MSAB, LF3, ICG001 compared", "result": "most potent inhibitor"}, {"measurement": "TCF/LEF luciferase reporter activity", "setting": "[10]; CHIR-induced reporter, single treatment vs CHIR", "result": "decreased TCF/LEF luciferase reporter activity; also recorded: decreases TFC/LEF luciferase reporter activity; also recorded: suppressed TCF/LEF activity"}, {"measurement": "TCF/LEF luciferase reporter activity, dose course", "setting": "[10]; CHIR-induced reporter, various concentrations", "result": "stepwise decrease in TCF/LEF activity; also recorded: Higher concentrations of WIC1 decrease TFC/LEF luciferase reporter activity to a greater extent"}, {"measurement": "mRNA expression of downstream Wnt signaling target genes (CCND1, MYC, CTNNB1)", "setting": "[11]", "result": "decreased mRNA expression"}]}]}
